Earlier results as cited in patent US20240382483A1, “HETEROCYCLIC EGFR INHIBITORS FOR USE IN THE TREATMENT OF CANCER” (Blueprint Medicines Corporation, priority 2021, published 2024).

Tested on: EGFR mutant NSCLC (EGFR M+)
Settings: NSCLC patients; cited from earlier work

C=CC(=O)Nc1cc(Nc2nccc(-c3cn(C)c4ccccc34)n2)c(OC)cc1N(C)CCN(C)C [osimertinib]
time of treatment until resistance: approximately 10 months
